In the supplement of paper PMC12076712 one finds pIC50 data, which are given here for six molecules.

As usually defined, the pIC50 is the IC50 on a negative log10 scale, so that one unit is a factor of ten. Read a high pIC50 as a low IC50.

What all share (experiment): pIC50, kinobeads binding competition
One test deals with MYLK (UniProt Q15746). The following applies: cell material: Lysate mix. A digest of the protocol:
(§1)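 Live Jurkat cells were treated with nine compound concentrations (top 30 μM, 1:4 steps) or DMSO for 60 min at 37 °C before lysis. Alternatively, Jurkat lysate or a 1:1:1:1 HEK293/K-562/HepG2/placenta lysate mix was incubated with nine concentrations (top 30 μM, 1:5 steps) for 60 min at 4 °C. Kinobeads-bound proteins were digested and quantified by TMT10 LC-MS/MS. pIC50 came from logistic dose-response fits (R drc package) of fold changes versus DMSO, in biological duplicates.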

Another test has as its target UniProt Q13164. The procedure, abridged: as §1
A further test has as its target T1, PRKG1 (UniProt Q13976).
T1 sequence (whole entry): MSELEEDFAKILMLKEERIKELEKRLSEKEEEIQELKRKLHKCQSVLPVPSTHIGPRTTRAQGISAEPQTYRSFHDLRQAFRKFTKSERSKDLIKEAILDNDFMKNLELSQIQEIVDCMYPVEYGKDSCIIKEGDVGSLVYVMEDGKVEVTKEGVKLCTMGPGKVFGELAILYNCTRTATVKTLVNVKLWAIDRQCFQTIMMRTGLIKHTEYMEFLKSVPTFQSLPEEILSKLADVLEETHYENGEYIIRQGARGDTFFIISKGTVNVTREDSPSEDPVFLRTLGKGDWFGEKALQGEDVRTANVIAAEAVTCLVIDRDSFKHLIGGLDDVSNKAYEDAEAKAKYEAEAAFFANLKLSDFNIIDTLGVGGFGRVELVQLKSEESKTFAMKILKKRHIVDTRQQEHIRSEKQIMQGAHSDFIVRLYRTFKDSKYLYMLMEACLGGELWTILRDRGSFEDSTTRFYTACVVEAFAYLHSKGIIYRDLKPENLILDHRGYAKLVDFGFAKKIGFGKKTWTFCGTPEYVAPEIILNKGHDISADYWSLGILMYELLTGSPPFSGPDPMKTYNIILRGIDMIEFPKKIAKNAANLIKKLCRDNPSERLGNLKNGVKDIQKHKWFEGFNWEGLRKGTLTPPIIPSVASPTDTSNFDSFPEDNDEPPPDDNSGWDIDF
The note with it: cell material: Lysate mix. The procedure, abridged: as §1

For a further test, the target named is T2, UniProt O94768.
T2 sequence (whole entry): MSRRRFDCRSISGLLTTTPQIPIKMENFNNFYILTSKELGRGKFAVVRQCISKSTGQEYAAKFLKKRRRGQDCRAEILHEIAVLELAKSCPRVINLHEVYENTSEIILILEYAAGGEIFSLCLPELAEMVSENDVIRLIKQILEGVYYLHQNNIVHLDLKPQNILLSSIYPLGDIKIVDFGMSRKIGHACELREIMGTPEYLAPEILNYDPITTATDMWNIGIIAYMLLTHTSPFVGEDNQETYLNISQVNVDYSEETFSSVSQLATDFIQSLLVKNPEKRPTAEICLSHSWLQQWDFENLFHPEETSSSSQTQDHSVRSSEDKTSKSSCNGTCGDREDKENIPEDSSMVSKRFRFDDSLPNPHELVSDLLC
The procedure, abridged: as §1

For a further test, the target named is RIPK2 (UniProt O43353). The following applies: cell material: Lysate mix. A digest of the protocol:
as §1

The next test has as its target T3, UniProt P78356.
T3 sequence (whole entry): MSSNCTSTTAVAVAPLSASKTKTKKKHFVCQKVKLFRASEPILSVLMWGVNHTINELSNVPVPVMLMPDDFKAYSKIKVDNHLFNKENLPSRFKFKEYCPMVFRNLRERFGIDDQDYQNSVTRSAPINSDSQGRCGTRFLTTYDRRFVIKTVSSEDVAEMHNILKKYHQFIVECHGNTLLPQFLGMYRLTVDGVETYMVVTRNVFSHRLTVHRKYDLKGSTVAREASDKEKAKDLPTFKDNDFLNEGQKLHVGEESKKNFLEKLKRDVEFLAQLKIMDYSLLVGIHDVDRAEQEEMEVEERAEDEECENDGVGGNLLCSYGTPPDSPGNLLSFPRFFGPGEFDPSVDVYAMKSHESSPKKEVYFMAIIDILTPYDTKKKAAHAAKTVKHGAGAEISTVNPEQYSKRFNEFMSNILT
A digest of the protocol: as §1

A further test concerns the target T4, TTK (UniProt P33981).
T4 sequence (whole entry): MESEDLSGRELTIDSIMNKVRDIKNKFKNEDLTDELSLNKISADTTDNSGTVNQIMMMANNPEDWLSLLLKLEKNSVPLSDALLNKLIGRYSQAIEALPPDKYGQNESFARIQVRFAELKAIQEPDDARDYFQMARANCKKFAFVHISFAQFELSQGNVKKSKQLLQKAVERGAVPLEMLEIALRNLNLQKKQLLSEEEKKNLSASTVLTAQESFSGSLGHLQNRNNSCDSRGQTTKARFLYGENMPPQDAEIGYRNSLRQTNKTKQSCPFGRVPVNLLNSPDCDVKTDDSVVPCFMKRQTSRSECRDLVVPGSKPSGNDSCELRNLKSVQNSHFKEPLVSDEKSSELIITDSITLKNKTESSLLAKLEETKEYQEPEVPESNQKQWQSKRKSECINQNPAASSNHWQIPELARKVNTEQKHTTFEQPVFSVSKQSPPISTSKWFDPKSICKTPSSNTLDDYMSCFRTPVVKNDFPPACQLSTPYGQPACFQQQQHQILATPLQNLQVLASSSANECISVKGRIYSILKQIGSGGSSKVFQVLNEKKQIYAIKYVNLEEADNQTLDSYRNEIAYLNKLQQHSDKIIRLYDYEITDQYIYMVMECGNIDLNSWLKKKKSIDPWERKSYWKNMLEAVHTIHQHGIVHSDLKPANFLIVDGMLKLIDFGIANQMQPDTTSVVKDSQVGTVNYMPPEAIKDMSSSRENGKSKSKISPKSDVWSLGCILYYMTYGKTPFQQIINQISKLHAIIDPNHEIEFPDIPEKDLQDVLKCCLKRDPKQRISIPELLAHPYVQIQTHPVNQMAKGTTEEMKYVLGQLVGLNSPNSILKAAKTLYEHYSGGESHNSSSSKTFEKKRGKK
The procedure, abridged:
as §1

Chain of UniProt Q13164 (Q13164 whole entry, looked up): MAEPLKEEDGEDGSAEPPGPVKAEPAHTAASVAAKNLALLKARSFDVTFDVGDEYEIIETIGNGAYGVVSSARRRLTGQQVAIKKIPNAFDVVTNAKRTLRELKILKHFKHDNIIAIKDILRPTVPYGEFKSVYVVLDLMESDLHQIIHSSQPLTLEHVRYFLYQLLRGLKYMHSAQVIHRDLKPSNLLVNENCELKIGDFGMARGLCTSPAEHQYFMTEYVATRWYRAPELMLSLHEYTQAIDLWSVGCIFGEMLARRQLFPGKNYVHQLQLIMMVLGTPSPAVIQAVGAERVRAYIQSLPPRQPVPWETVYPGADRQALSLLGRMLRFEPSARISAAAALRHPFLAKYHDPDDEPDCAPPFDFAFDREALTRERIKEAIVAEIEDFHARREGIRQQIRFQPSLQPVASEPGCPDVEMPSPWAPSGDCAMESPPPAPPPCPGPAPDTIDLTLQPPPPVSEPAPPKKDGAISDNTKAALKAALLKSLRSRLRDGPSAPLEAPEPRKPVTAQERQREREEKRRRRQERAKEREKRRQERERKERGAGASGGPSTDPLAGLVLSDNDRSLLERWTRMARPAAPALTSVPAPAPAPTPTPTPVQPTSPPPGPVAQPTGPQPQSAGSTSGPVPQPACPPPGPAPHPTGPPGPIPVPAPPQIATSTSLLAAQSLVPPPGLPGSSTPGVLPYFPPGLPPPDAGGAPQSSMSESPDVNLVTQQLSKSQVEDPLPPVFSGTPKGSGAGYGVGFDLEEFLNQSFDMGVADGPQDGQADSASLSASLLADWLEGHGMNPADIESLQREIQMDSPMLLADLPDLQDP
Chain of MYLK (Q15746 whole entry): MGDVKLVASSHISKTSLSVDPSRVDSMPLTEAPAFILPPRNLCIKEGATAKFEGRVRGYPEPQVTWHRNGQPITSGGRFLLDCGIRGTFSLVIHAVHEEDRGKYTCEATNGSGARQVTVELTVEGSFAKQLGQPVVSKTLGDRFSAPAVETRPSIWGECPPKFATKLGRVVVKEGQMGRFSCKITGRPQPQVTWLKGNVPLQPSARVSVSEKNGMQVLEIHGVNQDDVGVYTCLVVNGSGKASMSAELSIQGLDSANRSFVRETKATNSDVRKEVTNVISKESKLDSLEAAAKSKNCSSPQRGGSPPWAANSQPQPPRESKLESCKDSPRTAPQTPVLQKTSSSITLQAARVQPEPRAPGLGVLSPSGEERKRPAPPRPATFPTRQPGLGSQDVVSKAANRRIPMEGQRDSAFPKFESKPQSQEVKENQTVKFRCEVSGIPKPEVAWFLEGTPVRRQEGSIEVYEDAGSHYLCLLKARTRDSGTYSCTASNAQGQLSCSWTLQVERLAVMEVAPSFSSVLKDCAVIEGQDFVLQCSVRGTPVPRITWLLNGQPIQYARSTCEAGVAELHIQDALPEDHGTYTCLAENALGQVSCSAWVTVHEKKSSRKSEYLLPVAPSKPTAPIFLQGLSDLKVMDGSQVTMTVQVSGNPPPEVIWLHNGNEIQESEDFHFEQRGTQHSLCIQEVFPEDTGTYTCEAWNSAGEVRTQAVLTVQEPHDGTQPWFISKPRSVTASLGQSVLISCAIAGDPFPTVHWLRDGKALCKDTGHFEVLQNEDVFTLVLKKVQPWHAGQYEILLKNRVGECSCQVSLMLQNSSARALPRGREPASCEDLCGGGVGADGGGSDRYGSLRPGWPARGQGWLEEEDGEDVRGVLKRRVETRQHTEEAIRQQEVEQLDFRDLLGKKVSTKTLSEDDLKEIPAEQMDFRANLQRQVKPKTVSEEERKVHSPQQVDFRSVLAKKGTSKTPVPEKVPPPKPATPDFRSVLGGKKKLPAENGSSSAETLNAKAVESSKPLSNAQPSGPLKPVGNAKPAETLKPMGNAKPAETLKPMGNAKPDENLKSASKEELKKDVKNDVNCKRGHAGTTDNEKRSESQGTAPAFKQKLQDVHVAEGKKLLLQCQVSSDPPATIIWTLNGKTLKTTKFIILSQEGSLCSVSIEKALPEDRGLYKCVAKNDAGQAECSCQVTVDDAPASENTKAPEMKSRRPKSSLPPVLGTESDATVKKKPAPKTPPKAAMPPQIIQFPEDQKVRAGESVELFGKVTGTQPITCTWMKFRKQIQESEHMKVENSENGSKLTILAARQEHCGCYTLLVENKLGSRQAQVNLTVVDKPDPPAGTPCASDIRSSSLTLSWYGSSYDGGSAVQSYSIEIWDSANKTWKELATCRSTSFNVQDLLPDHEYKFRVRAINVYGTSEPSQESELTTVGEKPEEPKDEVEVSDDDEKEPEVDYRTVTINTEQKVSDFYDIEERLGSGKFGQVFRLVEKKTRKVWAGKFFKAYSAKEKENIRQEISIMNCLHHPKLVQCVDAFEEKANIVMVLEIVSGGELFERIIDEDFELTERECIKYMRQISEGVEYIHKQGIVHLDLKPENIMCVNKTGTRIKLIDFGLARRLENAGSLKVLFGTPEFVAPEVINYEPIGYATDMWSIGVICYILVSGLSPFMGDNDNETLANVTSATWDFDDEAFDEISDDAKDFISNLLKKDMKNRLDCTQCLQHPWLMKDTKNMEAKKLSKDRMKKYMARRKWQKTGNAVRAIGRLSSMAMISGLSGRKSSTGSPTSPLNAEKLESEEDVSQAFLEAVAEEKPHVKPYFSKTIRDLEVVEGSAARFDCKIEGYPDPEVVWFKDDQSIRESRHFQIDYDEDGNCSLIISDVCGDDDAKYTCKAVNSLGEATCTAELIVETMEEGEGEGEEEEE
Chain of RIPK2 (O43353 whole entry): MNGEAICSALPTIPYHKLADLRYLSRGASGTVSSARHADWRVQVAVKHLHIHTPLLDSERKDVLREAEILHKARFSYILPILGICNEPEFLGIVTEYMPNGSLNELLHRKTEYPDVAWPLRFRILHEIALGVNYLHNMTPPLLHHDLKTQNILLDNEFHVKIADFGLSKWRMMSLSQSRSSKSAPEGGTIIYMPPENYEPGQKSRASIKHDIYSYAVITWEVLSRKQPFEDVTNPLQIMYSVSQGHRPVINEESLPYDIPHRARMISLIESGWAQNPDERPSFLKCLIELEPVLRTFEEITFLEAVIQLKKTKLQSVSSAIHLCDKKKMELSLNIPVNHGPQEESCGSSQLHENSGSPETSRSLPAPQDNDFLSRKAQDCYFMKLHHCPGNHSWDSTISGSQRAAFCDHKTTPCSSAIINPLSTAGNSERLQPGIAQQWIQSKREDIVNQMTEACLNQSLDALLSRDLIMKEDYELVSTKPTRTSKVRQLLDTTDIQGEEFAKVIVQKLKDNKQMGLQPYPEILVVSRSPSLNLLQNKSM

As for `Cc1cc(Nc2cc(C(=O)NCCNC(=O)OC3CC/C=C/CCC3)nc(N3CCN(Cc4ccc(S(=O)(=O)F)cc4)CC3)n2)n[nH]1` (stereo not given), the pIC50 on MYLK, at UniProt Q13164 (cell material: Lysate mix), on PRKG1, on UniProt O94768 (cell material: Lysate mix), at RIPK2 and on UniProt P78356 (cell material: Lysate mix) was < 4.52 in each case. For the same molecule, the pIC50 on TTK (cell material: Lysate mix) was < 4.52.

For the molecule `C#CCNC(=O)c1cc(Nc2cc(C3CC3)[nH]n2)nc(N2CCN(Cc3ccc(S(=O)(=O)F)cc3)CC2)n1`, the pIC50 at MYLK was < 4.52; at UniProt Q13164 (cell material: Jurkat cells), 5.69; on UniProt Q13164 (cell material: Jurkat lysate) it was < 4.52; on UniProt Q13164 (cell material: Lysate mix), 5.14; at PRKG1, < 4.52; at UniProt O94768 (cell material: Jurkat lysate), < 4.52. Further, the pIC50 is < 4.52 on UniProt O94768 (cell material: Lysate mix); < 4.52 at RIPK2; < 4.52 at UniProt P78356 (cell material: Jurkat lysate); < 4.52 on UniProt P78356 (cell material: Lysate mix); 5.56 on TTK (cell material: Jurkat cells); < 4.52 on TTK (cell material: Jurkat lysate). Moreover, at TTK (cell material: Lysate mix), the pIC50 was < 4.52.

For `CCNC(=O)c1cc(Nc2cc(C3CC3)[nH]n2)nc(N2CCN(Cc3ccc(S(=O)(=O)F)cc3)CC2)n1`, the pIC50 was < 4.52 at MYLK; 5.16 at UniProt Q13164 (cell material: Lysate mix); < 4.52 on PRKG1; < 4.52 on UniProt O94768 (cell material: Lysate mix); < 4.52 at RIPK2; < 4.52 at UniProt P78356 (cell material: Lysate mix). For the same molecule, the pIC50 at TTK (cell material: Lysate mix) is < 4.52.

`C#CCNC(=O)c1cc(Nc2cc(C)[nH]n2)nc(N2CCN(Cc3ccc(S(=O)(=O)F)cc3)CC2)n1`: the pIC50 on MYLK, at UniProt Q13164 (cell material: Lysate mix), at PRKG1, on UniProt O94768 (cell material: Lysate mix), on RIPK2 and at UniProt P78356 (cell material: Lysate mix) was < 4.52 in each case. On TTK (cell material: Lysate mix), the pIC50 was < 4.52.

Regarding `O=C(NCCNC(=O)c1cc(Nc2cc(C3CC3)[nH]n2)nc(N2CCN(Cc3ccc(S(=O)(=O)F)cc3)CC2)n1)OC1CC/C=C/CCC1` (stereo not given), the pIC50 on MYLK is < 4.52; on UniProt Q13164 (cell material: Jurkat cells) it was 4.92; on UniProt Q13164 (cell material: Jurkat lysate), < 4.52; on UniProt Q13164 (cell material: Lysate mix), < 4.52; on PRKG1 it was < 4.52; at UniProt O94768 (cell material: Jurkat cells) it was < 4.52. Besides, the pIC50 on UniProt O94768 (cell material: Jurkat lysate), at UniProt O94768 (cell material: Lysate mix), on RIPK2, on UniProt P78356 (cell material: Jurkat lysate), on UniProt P78356 (cell material: Lysate mix) and at TTK (cell material: Jurkat cells) was < 4.52 throughout. The pIC50 on TTK (cell material: Jurkat lysate) and on TTK (cell material: Lysate mix) was < 4.52 each time.

As for `CCNC(=O)c1cc(Nc2cc(C)[nH]n2)nc(N2CCN(Cc3ccc(S(=O)(=O)F)cc3)CC2)n1`, the pIC50 on MYLK is < 4.52; on UniProt Q13164 (cell material: Lysate mix) it was 4.6; on PRKG1, < 4.52; at UniProt O94768 (cell material: Lysate mix), < 4.52; on RIPK2, < 4.52; on UniProt P78356 (cell material: Lysate mix), < 4.52. Moreover, the pIC50 on TTK (cell material: Lysate mix) is < 4.52.
